This note sets out measurements from PubChem BioAssay AID248 (DTP/NCI, 2004).

Each structure is given as a SMILES string. Several values for one entry are separate records, joined by “and”; a condition that tells them apart may be missing. Equal values may be shown once. Toxic doses and inconclusive results are not listed.

The assay deals with L1210 leukemia ip in BDF1 mice, survival T/C. Briefly: NCI In Vivo Anticancer Drug Screen. Data for tumor model L1210 Leukemia (intraperitoneal) in B6D2F1 (BDF1) mice. Conditions: endpoint: mean survival time, higher = longer survival. An outline of the steps: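 Value reflects the ratio of survival in compound-treated mice to survival in vehicle-treated controls, with both groups carrying the same transplanted tumor.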

The mark [1] stands for this setting: dose: 100.0 mg/kg/injection, schedule: Q01DX009 (ip), vehicle: saline with Tween-80.
Setting [2] is: dose: 200.0 mg/kg/injection, schedule: Q01DX009 (ip), vehicle: saline with Tween-80.
Where [3] appears, read: dose: 50.0 mg/kg/injection, schedule: Q01DX009 (ip), vehicle: Klucel (hydroxypropylcellulose) (HPC).
[4] abbreviates: dose: 100.0 mg/kg/injection, schedule: Q01DX009 (ip), vehicle: Klucel (hydroxypropylcellulose) (HPC).
[5] abbreviates: dose: 200.0 mg/kg/injection, schedule: Q01DX009 (ip), vehicle: Klucel (hydroxypropylcellulose) (HPC).
The mark [6] stands for this setting: dose: 50.0 mg/kg/injection, schedule: Q01DX001 (ip), vehicle: saline.
The mark [7] stands for this setting: dose: 100.0 mg/kg/injection, schedule: Q01DX001 (ip), vehicle: saline.
[8] abbreviates: dose: 200.0 mg/kg/injection, schedule: Q01DX001 (ip), vehicle: saline.
The mark [9] stands for this setting: dose: 100.0 mg/kg/injection, schedule: Q04DX003 (ip), vehicle: Klucel (hydroxypropylcellulose) (HPC).
The mark [10] stands for this setting: dose: 200.0 mg/kg/injection, schedule: Q04DX003 (ip), vehicle: Klucel (hydroxypropylcellulose) (HPC).
[11] abbreviates: dose: 400.0 mg/kg/injection, schedule: Q01DX009 (ip), vehicle: Klucel (hydroxypropylcellulose) (HPC).
Setting [12] is: dose: 400.0 mg/kg/injection, schedule: Q04DX003 (ip), vehicle: Klucel (hydroxypropylcellulose) (HPC).

`COc1cccc2c1CCC1C2CCC2(O)CC(=O)CCC12C` (stereo unspecified): the T/C reads like this: (dose: 100.0 mg/kg/injection, schedule: Q04DX003 (sc), vehicle: steriod suspending solution) 115 % of control; (dose: 200.0 mg/kg/injection, schedule: Q04DX003 (sc), vehicle: steriod suspending solution) 113 % of control; (dose: 400.0 mg/kg/injection, schedule: Q04DX003 (sc), vehicle: steriod suspending solution) 113 % of control.
In the case of `Sc1ccc(Cl)cc1.[Pb]`, the T/C by setting is: (dose: 25.0 mg/kg/injection, schedule: Q01DX009 (ip), vehicle: gum acacia) 94 % of control; (dose: 25.0 mg/kg/injection, schedule: Q04DX002 (ip), vehicle: gum acacia) 99 % of control; (dose: 50.0 mg/kg/injection, schedule: Q01DX009 (ip), vehicle: gum acacia) 94 % of control; (dose: 50.0 mg/kg/injection, schedule: Q04DX002 (ip), vehicle: gum acacia) 99 % of control; (dose: 100.0 mg/kg/injection, schedule: Q04DX002 (ip), vehicle: gum acacia) 96 % of control and 91 % of control; (dose: 200.0 mg/kg/injection, schedule: Q04DX002 (ip), vehicle: gum acacia) 102 % of control. Also, the T/C (dose: 400.0 mg/kg/injection, schedule: Q04DX002 (ip), vehicle: gum acacia) is 109 % of control.
With `COC(=O)c1ccccc1NC(=O)C(Br)C(Br)C(=O)O` (stereo unspecified), the T/C (dose: 50.0 mg/kg/injection, schedule: Q01DX009 (ip), vehicle: saline with Tween-80) is 101 % of control; the T/C under setting [1] was 96 % of control; the T/C under setting [2] was 117 % of control.
Turning to `O=C(Nc1ccc(NC(=O)Nc2cccc(C3=NCCCN3)c2)cc1)Nc1ccc(C2=NCCCN2)cc1`, the T/C is 102 % of control (dose: 1.25 mg/kg/injection, schedule: Q01DX Z (ip), vehicle: carboxymethylcellulose (CMC)); 109 % of control (dose: 2.5 mg/kg/injection, schedule: Q01DX Z (ip), vehicle: carboxymethylcellulose (CMC)); 113 % of control (dose: 5.0 mg/kg/injection, schedule: Q01DX Z (ip), vehicle: carboxymethylcellulose (CMC)); 170 % of control (dose: 8.5 mg/kg/injection, schedule: Q01DX Z (ip), vehicle: carboxymethylcellulose (CMC)); 167 % of control (dose: 10.0 mg/kg/injection, schedule: Q01DX Z (ip), vehicle: carboxymethylcellulose (CMC)); 157 % of control (dose: 15.0 mg/kg/injection, schedule: Q01DX Z (ip), vehicle: carboxymethylcellulose (CMC)). The T/C runs as follows: (dose: 17.0 mg/kg/injection, schedule: Q01DX Z (ip), vehicle: carboxymethylcellulose (CMC)) 151 % of control; (dose: 50.0 mg/kg/injection, schedule: Q01DX Z (oral), vehicle: carboxymethylcellulose (CMC)) 102 % of control; (dose: 100.0 mg/kg/injection, schedule: Q01DX Z (oral), vehicle: carboxymethylcellulose (CMC)) 107 % of control; (dose: 200.0 mg/kg/injection, schedule: Q01DX Z (oral), vehicle: carboxymethylcellulose (CMC)) 104 % of control; (dose: 400.0 mg/kg/injection, schedule: Q01DX Z (oral), vehicle: carboxymethylcellulose (CMC)) 102 % of control.
Consider `CCOC(=O)C1C(=O)C(C(C2C(=O)C(C(=O)OCC)C(c3ccc(O)cc3)C(C(=O)OCC)C2=O)C(O)C(O)C(O)CO)C(=O)C(C(=O)OCC)C1c1ccc(O)cc1` (stereo unspecified) (tested in a mixture with another compound), for which the T/C was 101 % of control and 96 % of control under setting [3]; 93 % of control and 96 % of control under setting [4]; 104 % of control and 107 % of control under setting [5].
For `CCCCOC(=O)C(C(=O)OCCCC)(C(=O)OCCCC)C(C(=O)OCCCC)(C(=O)OCCCC)C(=O)OCCCC`, the T/C was 101 % of control under setting [6], 111 % of control under setting [7] and 104 % of control under setting [8].
On to `CCCSP(=[Se])(CCC)c1ccccc1` (stereo unspecified), for which the T/C reads like this: (dose: 25.0 mg/kg/injection, schedule: Q04DX002 (ip), vehicle: saline with Tween-80) 97 % of control; (dose: 50.0 mg/kg/injection, schedule: Q04DX002 (ip), vehicle: saline with Tween-80) 97 % of control; (dose: 100.0 mg/kg/injection, schedule: Q04DX002 (ip), vehicle: saline with Tween-80) 101 % of control.
For the compound `O=c1[nH]c(Cc2ccccc2)c(Br)c(=O)[nH]1`, the T/C was 102 % of control under setting [6]; 100 % of control under setting [7]; 104 % of control under setting [1]; 104 % of control (dose: 100.0 mg/kg/injection, schedule: Q## X009 (ip), vehicle: saline with Tween-80); 100 % of control under setting [8]; 92 % of control under setting [2]. The T/C was 92 % of control (dose: 200.0 mg/kg/injection, schedule: Q## X009 (ip), vehicle: saline with Tween-80) and 94 % of control (dose: 400.0 mg/kg/injection, schedule: Q01DX001 (ip), vehicle: saline).
`c1ccc(CSCCSCc2ccccc2)cc1`: the T/C is, setting by setting: (dose: 87.5 mg/kg/injection, schedule: Q01DX009 (ip), vehicle: other) 95 % of control; (dose: 175.0 mg/kg/injection, schedule: Q01DX009 (ip), vehicle: other) 101 % of control; (dose: 350.0 mg/kg/injection, schedule: Q01DX009 (ip), vehicle: other) 104 % of control.
With `COc1ccc(-n2c(=O)c(N=Nc3ccc(Cl)cc3)c(O)n(-c3ccccc3OC)c2=S)cc1`, the T/C is, setting by setting: (dose: 50.0 mg/kg/injection, schedule: Q01DX001 (ip), vehicle: Klucel (hydroxypropylcellulose) (HPC)) 110 % of control; (dose: 100.0 mg/kg/injection, schedule: Q01DX001 (ip), vehicle: Klucel (hydroxypropylcellulose) (HPC)) 102 % of control; (dose: 200.0 mg/kg/injection, schedule: Q01DX001 (ip), vehicle: Klucel (hydroxypropylcellulose) (HPC)) 100 % of control.
Take `Cc1ccc(N2C(=O)CC(Sc3ccccc3N)C2=O)cc1Cl` (stereo unspecified): the T/C is 88 % of control under setting [4]; 88 % of control under setting [1]; 93 % of control under setting [9]; 86 % of control and 89 % of control (dose: 100.0 mg/kg/injection, schedule: Q04DX003 (ip), vehicle: saline with Tween-80); 96 % of control under setting [2]; 93 % of control under setting [10]. In addition, the T/C by setting is: (dose: 200.0 mg/kg/injection, schedule: Q04DX003 (ip), vehicle: saline with Tween-80) 87 % of control and 91 % of control; under setting [11], 90 % of control; (dose: 400.0 mg/kg/injection, schedule: Q01DX009 (ip), vehicle: saline with Tween-80) 95 % of control; under setting [12], 94 % of control; (dose: 400.0 mg/kg/injection, schedule: Q04DX003 (ip), vehicle: saline with Tween-80) 86 % of control and 87 % of control.
Turning to `Cc1cc(S(=O)(=O)NO)c(N)cc1Cl`, the T/C by setting is: under setting [3], 108 % of control; under setting [4], 99 % of control; under setting [5], 99 % of control.
As to `CCCCCCNc1c([N+](=O)[O-])cc(C)cc1[N+](=O)[O-]`, the T/C runs as follows: under setting [4], 100 % of control; under setting [9], 103 % of control; under setting [5], 111 % of control; under setting [10], 116 % of control; under setting [11], 96 % of control; under setting [12], 108 % of control.
Turning to `C[C@]12CC[C@H](O)C[C@@H]1CC[C@@H]1[C@@H]2C(=O)C[C@]2(C)C3=CC(=O)O[C@H]3C[C@@H]12`, the T/C is 94 % of control and 108 % of control (dose: 5.0 mg/kg/injection, schedule: Q01DX Z (sc), vehicle: steriod suspending solution); 97 % of control and 100 % of control (dose: 10.0 mg/kg/injection, schedule: Q01DX Z (sc), vehicle: steriod suspending solution); 94 % of control and 102 % of control (dose: 20.0 mg/kg/injection, schedule: Q01DX Z (sc), vehicle: steriod suspending solution); 94 % of control and 96 % of control and 100 % of control (dose: 40.0 mg/kg/injection, schedule: Q01DX Z (sc), vehicle: steriod suspending solution); 104 % of control (dose: 80.0 mg/kg/injection, schedule: Q01DX Z (sc), vehicle: steriod suspending solution); 95 % of control (dose: 160.0 mg/kg/injection, schedule: Q01DX Z (sc), vehicle: steriod suspending solution). In addition, the T/C runs as follows: (dose: 320.0 mg/kg/injection, schedule: Q01DX Z (sc), vehicle: steriod suspending solution) 95 % of control; (dose: 640.0 mg/kg/injection, schedule: Q01DX015 (sc), vehicle: steriod suspending solution) 100 % of control; (dose: 1280.0 mg/kg/injection, schedule: Q01DX015 (sc), vehicle: steriod suspending solution) 96 % of control.
